{
  "source": "patent US20250313575A1",
  "about": "“MACROCYCLES AS LRRK2 INHIBITORS, PHARMACEUTICAL COMPOSITIONS, AND USES THEREOF” (Merck Sharp & Dohme LLC, priority 2022, published 2025)",
  "data": [
    {"target": "GST-tagged truncated human mutant G2019S LRRK2 (Homo sapiens (Human), UniProt Q5S007, G2019S)", "sequence (Q5S007 970-2527 G2019S)": "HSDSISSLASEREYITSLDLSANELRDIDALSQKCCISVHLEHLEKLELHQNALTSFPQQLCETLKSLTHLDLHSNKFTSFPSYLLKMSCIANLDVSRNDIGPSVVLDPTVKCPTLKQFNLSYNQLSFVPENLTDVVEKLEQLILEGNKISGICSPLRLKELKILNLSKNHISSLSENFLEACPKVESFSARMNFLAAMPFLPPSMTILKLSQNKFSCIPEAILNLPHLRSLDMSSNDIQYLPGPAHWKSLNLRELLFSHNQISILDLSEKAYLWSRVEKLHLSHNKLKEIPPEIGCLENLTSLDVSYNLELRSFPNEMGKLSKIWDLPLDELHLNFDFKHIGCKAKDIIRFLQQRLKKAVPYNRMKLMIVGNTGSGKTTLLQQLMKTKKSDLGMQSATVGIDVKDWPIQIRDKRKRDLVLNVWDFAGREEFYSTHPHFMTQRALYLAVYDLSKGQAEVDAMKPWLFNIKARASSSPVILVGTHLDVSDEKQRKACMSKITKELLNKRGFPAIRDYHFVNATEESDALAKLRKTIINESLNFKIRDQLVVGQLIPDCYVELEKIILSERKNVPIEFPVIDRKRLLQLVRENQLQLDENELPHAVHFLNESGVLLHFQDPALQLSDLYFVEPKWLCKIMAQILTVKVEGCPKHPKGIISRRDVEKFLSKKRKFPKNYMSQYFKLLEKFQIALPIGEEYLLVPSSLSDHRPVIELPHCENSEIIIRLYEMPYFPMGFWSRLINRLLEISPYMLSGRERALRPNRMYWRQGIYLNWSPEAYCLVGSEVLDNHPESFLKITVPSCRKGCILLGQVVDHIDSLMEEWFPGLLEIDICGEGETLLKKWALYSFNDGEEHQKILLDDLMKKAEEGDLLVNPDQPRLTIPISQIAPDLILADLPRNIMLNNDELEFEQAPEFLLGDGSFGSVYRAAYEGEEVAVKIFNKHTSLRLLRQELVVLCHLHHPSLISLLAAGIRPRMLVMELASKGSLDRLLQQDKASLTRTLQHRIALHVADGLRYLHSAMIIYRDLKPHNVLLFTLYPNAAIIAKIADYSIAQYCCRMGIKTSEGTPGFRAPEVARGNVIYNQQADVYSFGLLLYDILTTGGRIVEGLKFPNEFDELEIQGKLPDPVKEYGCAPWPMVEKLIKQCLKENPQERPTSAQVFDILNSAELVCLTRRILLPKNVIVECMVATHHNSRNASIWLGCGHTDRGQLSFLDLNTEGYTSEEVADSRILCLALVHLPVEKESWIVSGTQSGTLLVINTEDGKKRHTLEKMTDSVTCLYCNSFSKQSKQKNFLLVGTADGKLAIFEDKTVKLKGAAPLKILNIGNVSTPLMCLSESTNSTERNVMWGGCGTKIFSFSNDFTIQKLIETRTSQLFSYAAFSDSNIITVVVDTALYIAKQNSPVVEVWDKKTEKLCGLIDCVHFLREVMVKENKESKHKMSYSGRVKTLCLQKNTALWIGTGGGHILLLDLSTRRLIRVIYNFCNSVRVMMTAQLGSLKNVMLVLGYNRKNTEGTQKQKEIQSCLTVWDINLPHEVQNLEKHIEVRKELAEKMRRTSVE", "assay": "LRRK2 G2019S Km ATP LanthaScreen assay", "assay_type": "biochemical", "settings": "G2019S LRRK2, 134 μM ATP (Km ATP), LRRKtide substrate", "in_short": "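Ten-point compound series (highest 9.99 μM in DMSO) preincubated 15 min with 1.25 nM GST-tagged truncated human LRRK2 G2019S, then 90 min reaction at ambient temperature with 134 μM ATP (Km) and fluorescein-labelled LRRKtide, pH 8.5. Phosphorylation read as 520/495 nm emission ratio via Tb-labelled antibody; IC50 from 4P logistic regression.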", "values": [
      {"smiles": "FC(F)(F)c1cnc2nc1NC1CCC1COc1c(C3CCOC3)nn(C3CCC3)c1N2", "note": "[Ex-2.62, (10aR,12aR)-3-cyclobutyl-1-((R)-(10aR,12aR)-3-cyclobutyl-1-((S)-(10aS,12aS)-3-cyclobutyl-1-((R)-(10aS,12aS)-3-cyclobutyl-1-((S)-tetrahydrofuran-3-yl)-8-(trifluoromethyl)-3,4,10,10a,11,12,12a,13-octahydro-5,9-(azeno)cyclobuta[k]pyrazolo[4,3-b][1]oxa[4,6,10]triazacyclotridecine]", "LRRK2 pIC50": 6.88},
      {"smiles": "Cc1nn(C2CCC2)c2c1OC1COC[C@H]1CNc1nc(ncc1C(F)(F)F)N2", "note": "(single isomer, unassigned) [Ex-2.81, (11aR,14aS) or (11aS,14aR)-3-cyclobutyl-1-methyl-8-(trifluoromethyl)-3,4,10,11,11a,12,14,14a-octahydro-5,9-(azeno)furo[3,4-1]pyrazolo[4,3-b][1]oxa[4,6,10]triazacyclotridecine]", "LRRK2 pIC50": 5.99},
      {"smiles": "Cc1nn(C2CCC2)c2c1CC[C@@H]1COC[C@H]1Nc1nc(ncc1C(F)(F)F)N2", "note": "(single isomer, unassigned) [Ex-12.1, (10aS,13aS)- or (10aR,13aR)-3-Cyclobutyl-1-methyl-8-(trifluoromethyl)-3,4,10a,11,13,13a,14,15-octahydro-10H-5,9-(azeno)furo[3,4-h]pyrazolo[4,3-l][1,3,7]triazacyclotridecine]", "LRRK2 pIC50": ">10.09"},
      {"smiles": "O[C@@H]1COCC1n1nc(C2CC2)c2c1OC[C@H]1CC[C@@H]1Nc1nc(ncc1C(F)(F)F)N2", "note": "(single isomer, unassigned) [Ex-6.4, (3R,4S)-4-((10aR,12aR)- or (3R,4S)-4-((10aS,12aS)- or (3S,4R)-4-((10aR,12aR)- or (3S,4R)-4-((10aR,12aR)-3-cyclopropyl-8-(trifluoromethyl)-10,10a,11,12,12a,13-hexahydro-5,9-(azeno)cyclobuta[k]pyrazolo[3,4-b][1]oxa[4,6,10]triazacyclotridecin-1 (4H)-yl)tetrahydrofuran-3-ol]", "LRRK2 pIC50": ">10.09"},
      {"smiles": "Cc1nn(C2CCC2)c2c1OC[C@H]1CC[C@H]1Nc1nc(ncc1C(F)(F)F)N2", "note": "(single isomer, unassigned) [Ex-2.23, (10aR,12aS)- or (10aS,12aR)-3-cyclobutyl-1-methyl-8-(trifluoromethyl)-3,4,10,10a,11,12,12a,13-octahydro-5,9-(azeno)cyclobuta[k]pyrazolo[4,3-b][1]oxa[4,6,10]triazacyclotridecine]", "LRRK2 pIC50": ">10.09"},
      {"smiles": "COC(=O)c1nn(C2CCC2)c2c1OC[C@@H]1COC[C@H]1Nc1nc(ncc1C(F)(F)F)N2", "note": "[Ex-5.6, methyl (10aS,13aS)-3-cyclobutyl-8-(trifluoromethyl)-3,4,10a,11,13a,14-hexahydro-10H,13H-5,9-(azeno)furo[3,4-k]pyrazolo[4,3-b][1]oxa[4,6,10]triazacyclotridecine-1-carboxylate]", "LRRK2 pIC50": 9.80},
      {"smiles": "FC(F)(F)c1cnc2nc1N[C@@H]1COC[C@H]1COc1cccc(Br)c1N2", "note": "[Ex-15.4, (3aS,16aS)-11-bromo-6-(trifluoromethyl)-3a,4,16,16a-tetrahydro-1H,3H,10H-5,9-(azeno)benzo[b]furo[3,4-k][1]oxa[4,6,10]triazacyclotridecine]", "LRRK2 pIC50": 9.12},
      {"smiles": "Cn1cc(C2CC2c2nn(C3CCC3)c3c2OC[C@@H]2COC[C@H]2Nc2nc(ncc2C(F)(F)F)N3)cn1", "note": "(stereo partly drawn) [Ex-2.70, (10aS,13aS)-3-cyclobutyl-1-((1S,2S)- or (10aS,13aS)-3-cyclobutyl-1-((IR,2R)-2-(1-methyl-1H-pyrazol-4-yl)cyclopropyl)-8-(trifluoromethyl)-3,4,10a,11,13a,14-hexahydro-10H,13H-5,9-(azeno)furo[3,4-k]pyrazolo[4,3-b][1]oxa[4,6,10]triazacyclotridecine]", "LRRK2 pIC50": 9.35},
      {"smiles": "CCn1nc(C)c2c1OCC1(CC1)CNc1nc(ncc1C(F)(F)F)N2", "note": "[Ex-1.3, 1′-ethyl-3′-methyl-8′-(trifluoromethyl)-1′,4′,10′,11′-tetrahydro-13′H-spiro[cyclopropane-1,12′-[5,9](azeno)pyrazolo[3,4-b][1]oxa[4,6,10]triazacyclotridecine]]", "LRRK2 pIC50": 9.07},
      {"smiles": "COC1CCC1n1nc(C)c2c1Nc1ncc(C(F)(F)F)c(n1)NC1COCC1CO2", "note": "[Ex-2.39, (10aS,13aS)-3-((1R,2R)-(10aS,13aS)-3-((1S,2R)-(10aS,13aS)-3-((1R,2S)-(10aS,13aS)-3-((1R,2R)-(10aR,13aR)-3-((1S,2R)-(10aR,13aR)-3-((1R,2S)-2-methoxycyclobutyl)-1-methyl-8-(trifluoromethyl)-3,4,10a,11,13a,14-hexahydro-10H,13H-5,9-(azeno)furo[3,4-k]pyrazolo[4,3-b][1]oxa[4,6,10]triazacyclotridecine]", "LRRK2 pIC50": 6.32},
      {"smiles": "CC(C)c1n[nH]c2c1Nc1ncc(C(F)(F)F)c(n1)N[C@@H]1CC[C@H]1CO2", "note": "[Ex-1.22, (10aR,12aR)-3-isopropyl-8-(trifluoromethyl)-1,4,10,10a,11,12,12a,13-octahydro-5,9-(azeno)cyclobuta[k]pyrazolo[3,4-b][1]oxa[4,6,10]triazacyclotridecine]", "LRRK2 pIC50": ">10.09"},
      {"smiles": "Cn1nc(C2CC2)c2c1OCC1COCC1Nc1nc(ncc1C(F)(F)F)N2", "note": "[Ex-1.7, (10aS,13aS)- or (10aR,13aR)-3-cyclopropyl-1-methyl-8-(trifluoromethyl)-1,4,10a,11,13a,14-hexahydro-10H,13H-5,9-(azeno)furo[3,4-k]pyrazolo[3,4-b][1]oxa[4,6,10]triazacyclotridecine]", "LRRK2 pIC50": ">10.09"},
      {"smiles": "CC1CCOc2c(C3CC3)nn(C)c2Nc2ncc(C(F)(F)F)c(n2)N1", "note": "(single isomer, unassigned) [Ex-2.19, (R)- or (S)-3-cyclopropyl-1,7-dimethyl-10-(trifluoromethyl)-1,5,6,7,8,14-hexahydro-9,13-(azeno)pyrazolo[4,3-b][1]oxa[4,6,10]triazacyclotridecine]", "LRRK2 pIC50": 8.78},
      {"smiles": "Cc1nn(C2CCC2)c2c1OC[C@@H]1COC[C@H]1Nc1cc(ncc1F)N2", "note": "[Ex-13.8, (10aR,13aR)-3-cyclobutyl-8-fluoro-1-methyl-3,4,10a,11,13a,14-hexahydro-10H,13H-5,9-(metheno)furo[3,4-k]pyrazolo[4,3-b][1]oxa[4,6,10]triazacyclotridecine]", "LRRK2 pIC50": "<5.00"},
      {"smiles": "Cc1nn(C2CCC2)c2c1OCC1COCCC1Nc1nc(ncc1C(F)(F)F)N2", "note": "[Ex-2.35, (4aR,16aR)- and (4aS,16aS)-12-cyclobutyl-14-methyl-7-(trifluoromethyl)-3,4,4a,5,11,12,16,16a-octahydro-1H-6,10-(azeno)pyrano[4,3-k]pyrazolo[4,3-b][1]oxa[4,6,10]triazacyclotridecine]", "LRRK2 pIC50": 8.56},
      {"smiles": "Cc1nn(C2CC2)c2c1OC[C@@H]1COC[C@H]1Nc1nc(ncc1C(F)(F)F)N2", "note": "[Ex-5.2, (10aS,13aS)-3-cyclopropyl-1-methyl-8-(trifluoromethyl)-3,4,10a,11,13a,14-hexahydro-10H,13H-5,9-(azeno)furo[3,4-k]pyrazolo[4,3-b][1]oxa[4,6,10]triazacyclotridecine]", "LRRK2 pIC50": 9.46},
      {"smiles": "CCOC(=O)Cc1nn(C2CC2)c2c1OC[C@@H]1COC[C@H]1Nc1nc(ncc1C(F)(F)F)N2", "note": "[Ex-2.67, ethyl 2-((10aS,13aS)-3-cyclopropyl-8-(trifluoromethyl)-3,4,10a,11,13a,14-hexahydro-10H,13H-5,9-(azeno)furo[3,4-k]pyrazolo[4,3-b][1]oxa[4,6,10]triazacyclotridecin-1-yl)acetate]", "LRRK2 pIC50": 9.45},
      {"smiles": "CC(C)c1nn(C(C)(C)CO)c2c1N(C)c1ncc(C(F)(F)F)c(n1)N[C@H](C)CCO2", "note": "[Ex-9.1, (R)-2-(3-isopropyl-4,11-dimethyl-8-(trifluoromethyl)-10,11,12,13-tetrahydro-5,9-(azeno)pyrazolo[3,4-b][1]oxa[4,6,10]triazacyclotridecin-1 (4H)-yl)-2-methylpropan-1-ol]", "LRRK2 pIC50": 6.11},
      {"smiles": "Cn1nc(C(F)(F)F)c2c1OC[C@@H]1COC[C@H]1Nc1nc(ncc1Cl)N2", "note": "[Ex-1.13, (10aS,13aS)-8-chloro-1-methyl-3-(trifluoromethyl)-1,4,10a,11,13a,14-hexahydro-10H,13H-5,9-(azeno)furo[3,4-k]pyrazolo[3,4-b][1]oxa[4,6,10]triazacyclotridecine]", "LRRK2 pIC50": 7.99},
      {"smiles": "Cc1nn(C2CCC2)c2c1OC[C@@H]1CC[C@H]1Nc1nc(ncc1C(F)(F)F)N2", "note": "[Ex-2.4, (10aR,12aR)- or (10aS,12aS)-3-Cyclobutyl-1-methyl-8-(trifluoromethyl)-3,4,10,10a,11,12,12a,13-octahydro-5,9-(azeno)cyclobuta[k]pyrazolo[4,3-b][1]oxa[4,6,10]triazacyclotridecine]", "LRRK2 pIC50": 6.66},
      {"smiles": "Cc1nn(C)c2c1OCC[C@H](C)Nc1nc(ncc1C(F)(F)F)N2", "note": "(mixture of isomers) [Ex-2.1, (R)- and (S)-1,3,7-trimethyl-10-(trifluoromethyl)-1,5,6,7,8,14-hexahydro-9,13-(azeno)pyrazolo[4,3-b][1]oxa[4,6,10]triazacyclotridecine]", "LRRK2 pIC50": 6.64},
      {"smiles": "Cc1nn(C2CCC2)c2c1OCC1CCCC1Nc1nc(ncc1C(F)(F)F)N2", "note": "[Ex-5.4, (10aR,13aR)- or (10aS,13aS)-3-cyclobutyl-1-methyl-8-(trifluoromethyl)-3,4,10a,11,12,13,13a,14-octahydro-10H-5,9-(azeno)cyclopenta[k]pyrazolo[4,3-b][1]oxa[4,6,10]triazacyclotridecine]", "LRRK2 pIC50": 6.78},
      {"smiles": "FC(F)(F)c1cnc2nc1NC1CCC1COc1c(C3COC3)nn(C3CCC3)c1N2", "note": "[Ex-2.72, (10aR,12aR)- or (10aS,12aS)-3-cyclobutyl-1-(oxetan-3-yl)-8-(trifluoromethyl)-3,4,10,10a,11,12,12a,13-octahydro-5,9-(azeno)cyclobuta[k]pyrazolo[4,3-b][1]oxa[4,6,10]triazacyclotridecine]", "LRRK2 pIC50": ">10.09"}
    ]}
  ]
}
